According to patent US10004716B2, “Therapeutic/ preventive agent containing coumarin derivative as active ingredient” (NIPPON ZOKI PHARMACEUTICAL CO., LTD., priority 2014, dated 2018):

Legend:
IL-1β gene expression = assay: Suppression of LPS-induced gene expression of inflammation-related factors in THP-1 cells (real time PCR): IL-1β; format: cell-based, human; conditions: PMA-differentiated THP-1 cells; test substance 12.5 μmol/mL 2 hours, then LPS 10 mg/mL 3 hours; n = 3
Experimental: THP-1 cells were subjected to induction of differentiation for 72 hours with PMA (phorbol 12-myristate 13-acetate; 100 nM/L) and then the THP-1 cells (5×10^5 cells/mL) were incubated for 24 hours in a RPMI 1640+10% FCS culture solution in a 24-well plate. After that, a test substance was added so as to make the final concentration 12.5 μmol/mL followed by conducting the preincubation for 2 hours, a lipopolysaccharide (LPS) was then added thereto so as to make the final concentration 10 mg/mL and, after 3 hours, the cells were recovered.
QIAzol Lysis Reagent (QIAGEN) (1 mL) was added to the above to suspend, 200 μL of chloroform was added thereto followed by mixing and centrifugation (at 4° C. and 1500 rpm) was conducted whereby the supernatant liquid was recovered. Total RNA was extracted and purified by treating the supernatant liquid with QIACube (QIAGEN) and RNeasy Micro Kit (QIAGEN). cDNA was prepared from the total RNA using Omniscript RT kit (QIAGEN) and Oligo(dT)12-18 Primer (Invitrogen).
(§1) Gene expression level of the inflammation-related factors [IL-1β, IL-6 and monocyte chemotactic protein (MCP)-1] was measured by a conventional real time PCR method using a fluorescent dye SYBR GREEN I (Roche Diagnostics) by Light Cycler LC 480 (the same) using cDNA synthesized from the total RNA extracted in the above (2). A calibration curve was prepared by diluting the PCR product quantified by PicoGreen dsDNA Quantitation kit (Molecular probes) (a DNA quantitation kit) to an extent of 10^2˜10^7 copies/μL. From each of the resulting quantified values, copy numbers per 10000 copies of GAPDH gene being an internal standard were calculated.

[1] = test system: rats suffering from degenerative intervertebral disk induced by nicotine; assay: 50% reaction threshold value to mechanical stimulation (von Frey test) in rats with degenerative intervertebral disk induced by nicotine; format: in vivo; conditions: SD male rats, after 41 days from exposure to nicotine, 1 hour after administration; per os once daily; n = 8; normal control 15.0, diseased control 4.6
Experimental: After 16 days from the purchase, SD male rats were organized into normal control group and nicotine group in terms of body weight, 50% reaction threshold value (measuring method will be mentioned later) and duration of walking time and, after 17 days from the purchase, exposure to nicotine was started for a nicotine group. Nicotine was prepared into 344.8 mg/mL using a physiological saline solution, filled into an osmotic pressure pump and retained under the skin of waist of rats. After 21 days from the retaining, an osmotic pressure pump into which a freshly-prepared nicotine solution was filled was retained under the skin of rats of five groups except the normal control group. Nicotine was prepared into […] using a physiological saline solution, filled into an osmotic pressure pump and retained under the skin of waist of the SD male rats.
After 13 days from exposure to nicotine, measurement of 50% reaction threshold value, duration of walking time and body weight were measured and a group organization was done into 6 groups of normal control group, diseased control group, compound 57-administered group, compound 58-administered group, compound 60-administered group and compound 68-administered group.
A test substance was suspended using 0.5 w/v % CMC and, together with stirring, 10 mL/kg of the suspension was repeatedly administered per os once daily after 14 to 52 or 53 days from the initiation of exposure to nicotine using an oral sonde for rats. To the normal control group and the diseased control group, 0.5 w/v % CMC was repeatedly administered per os in the same administration schedule and administration method.
A 50% reaction threshold value to mechanical stimulation was measured before the exposure to nicotine and after 41 days from the exposure to nicotine. The six groups of the rats mentioned in the above (2) were placed in a transparent acrylic gauge where the bottom is a metal wire, acclimated for about 3 minutes and a 50% reaction threshold value to mechanical stimulation was measured after 1 hour from the administration of a testing drug.
The measurement was conducted using a von Frey filament (manufactured by North Coast Medical Inc.) in accordance with a method of Chaplan, et al. (Journal of Neuroscience Methods, vol. 53, no. 1, pages 55 to 63, 1994) and a method of Dixon, et al. ([…] of Pharmacology and Toxicology, vol. 20, pages 441 to 462, 1980). […] A 50% reaction threshold value to mechanical stimulation was measured using the reaction for the stimulation for six times in total and a mean value in each of the groups was calculated. […]

[2] = test system: type I collagen (Col 1) gene expression; assay: Evaluation I: TGF-β-induced gene expression of fibrosis-related factors in NHLF cells: Col 1; format: cell-based, human; conditions: 25 μmol/L test substance 2 hours, then TGF-β 5 ng/mL 24 hours, n = 3
Experimental: NHLF cells were sown so as to make their amount 4×10^4 cells/well to each well of a 12-well plate and incubated to an extent of 80% confluent in a medium where fibroblast growth medium 2 supplement mix (FGM-2 SingleQuots, Lonza) was added to a fibroblast basal medium (FBM, Lonza). After that, incubation was conducted for 2 hours in a Dulbecco modified Eagle medium (DMEM) containing 25 μmol/L of a test substance and, after addition of […] growth factor (TGF)-β thereto so as to make its final concentration 5 ng/mL, incubation was carried out for 24 hours more.
QIAzol Lysis Reagent (QIAGEN) (1 mL) was added to the above to suspend, 200 μL of chloroform was added thereto followed by mixing and centrifugation (at 4° C. and 1500 rpm) was then conducted whereby the supernatant liquid was recovered. Total RNA was extracted and purified by treating the supernatant liquid with QIACube (QIAGEN) and RNeasy Micro Kit (QIAGEN). cDNA was prepared from the total RNA using Omniscript RT kit (QIAGEN) and Oligo(dT)12-18 Primer (Invitrogen).
as §1, with “fibrosis-related” for “inflammation-related”, “[connective tissue growth factor (CTGF), α-smooth muscle actin (SMA), fibronectin, endothelin” for “[IL-1β, IL-6”, “type I collagen (Col 1)]” for “monocyte chemotactic protein (MCP)-1]”

Structure (SMILES)	Copy Numbers per 10000 Copies of GAPDH IL-1β (IL-1β gene expression)	Threshold Value for Pain [1] [g]	Copy Numbers per 10000 Copies of GAPDH Col 1 [2]
O=c1oc2c(OS(=O)(=O)c3ccc(C(F)(F)F)cc3)cccc2cc1NS(=O)(=O)c1cccc(C(F)(F)F)c1 [Compound 57, 2-Oxo-3-[[3-(trifluoromethyl)phenyl]sulfonylamino]-chromen-8-yl 4-(trifluoromethyl)benzenesulfonate]	30318.3 copies per 10000 copies of GAP	7.5	9715.8 copies per 10000 copies of GAP
O=c1oc2c(OS(=O)(=O)c3cccc(Br)c3)cccc2cc1NS(=O)(=O)c1cccc(C(F)(F)F)c1 [Compound 60, 2-Oxo-3-[[3-(trifluoromethyl)phenyl]sulfonylamino]-chromen-8-yl 3-bromobenzenesulfonate]	29872.3 copies per 10000 copies of GAP	9.6	11388.1 copies per 10000 copies of GAP
O=c1oc2c(OS(=O)(=O)c3cccc(C(F)(F)F)c3)cccc2cc1NS(=O)(=O)c1ccc(C(F)(F)F)cc1 [Compound 68, 2-Oxo-3-[[4-(trifluoromethyl)phenyl]sulfonylamino]-chromen-8-yl 3-(trifluoromethyl)benzenesulfonate]	24423.1 copies per 10000 copies of GAP	7.6	8905.8 copies per 10000 copies of GAP
O=c1oc2c(OS(=O)(=O)c3ccc(C(F)(F)F)cc3)cccc2cc1NS(=O)(=O)c1cccc(Br)c1 [Compound 58, 3-[(3-Bromophenyl)sulfonylamino]-2-oxochromen-8-yl 4-(trifluoromethyl)benzenesulfonate]	31904.4 copies per 10000 copies of GAP	6.7	5901.0 copies per 10000 copies of GAP
